For the experiment, the system named is 1b_Huh-Luc/Neo-ET cell line (bicistronic genotype 1b replicon in Huh 7 cells). Put plainly: HCV 1b replicon assay, luciferase readout. In kind it is cell-based, HCV genotype 1b. To be noted: Hepatitis C virus. The procedure: Biological activity of the compounds of the invention was determined using an HCV replicon assay. The 1b_Huh-Luc/Neo-ET cell line persistently expressing a bicistronic genotype 1b replicon in Huh 7 cells was obtained from ReBLikon GMBH. This cell line was used to test compound inhibition using luciferase enzyme activity readout as a measurement of compound inhibition of replicon levels.
On Day 1 (the day after plating), each compound is added in triplicate to the cells. Plates incubated for 72 […] prior to running the luciferase assay. Enzyme activity was measured using a Bright-Glo Kit (cat. number E2620) manufactured by Promega Corporation. The following equation was used to generate a percent control value for each compound.
%Control=(Average Compound Value/Average Control)*100
The EC50 value was determined using GraphPad Prism and the following equation:
Y=Bottom+(Top−Bottom)/(1+10̂((LogIC50−X)*HillSlope))
EC50 values of compounds are repeated several times in the replicon assay.
A general note: In antiviral work, replicon cells carry a viral genome segment that copies itself.

[1] abbreviates: Huh-7, class symbol, HCV genotype 1b replicon, read-out: Inhibition of HCV genotype 1b replicon.
Setting [2] is: Huh-7, 1b_Huh-Luc/Neo-ET cell line, read-out: EC50, half-maximal inhibition of HCV 1b replication.

Molecules are shown by their SMILES. Read-outs that look alike come from different tables or passages of the source.

As for `CNC(=O)c1c(-c2ccc(Br)cc2)nn2cc3c(cc12)C(C)CCCN3S(C)(=O)=O` (centres unmarked) [Compound B89], the EC50 under setting [1] is 0.01 to 0.1 µM.
Turning to `CNC(=O)c1c(-c2ccc(Oc3ccccc3)cc2)nn2cc3c(cc12)C(C)CCCN3S(C)(=O)=O` (centres unmarked) [Compound B90], under setting [1], the EC50 lay within 0.1 to 1 µM.
On the same count and under the same terms, as for `CNC(=O)c1c(-c2ccc(Oc3ccccc3Cl)cc2)nn2cc3c(cc12)C(C)CCCN3S(C)(=O)=O` (centres unmarked) [Compound B91], the figure is 0.1 to 1 µM.
With `CNC(=O)c1c(-c2ccc(F)cc2)oc2cc3c(cc12)CC(C)CCN3S(C)(=O)=O` (centres unmarked) [Compound B92], the EC50 runs as follows: under setting [2], not above 0.01 µM; under setting [1], less than 0.01 µM.
As to `CNC(=O)c1c(-c2ccc(F)cc2)oc2cc3c(cc12)CCCCN3S(=O)(=O)C1CC1` [Compound B93], the EC50 by setting is: under setting [2], 0.01 to 0.1 µM; under setting [1], 0.01 to 0.1 µM.
`CNC(=O)c1c(-c2ccc(F)cc2)oc2cc3c(cc12)C(C)CCCCN3S(C)(=O)=O` (centres unmarked) [Compound B94]: the EC50 under setting [2] was not above 0.01 µM and the EC50 under setting [1] is less than 0.01 µM.
`CNC(=O)c1c(-c2ccc(Oc3ccccc3F)cc2)nn2cc3c(cc12)C(C)CCCN3S(C)(=O)=O` (centres unmarked) [Compound B95]: the EC50 under setting [1] lay within 0.1 to 1 µM.
The same measure, in the same setting: the same measure for `CNC(=O)c1c(-c2ccc(Oc3cccc(F)c3)cc2)nn2cc3c(cc12)C(C)CCCN3S(C)(=O)=O` (centres unmarked) [Compound B96]: 0.01 to 0.1 µM.
For the compound `CNC(=O)c1c(-c2ccc(F)cc2)oc2cc3c(cc12)C(C)N(CC(F)(F)F)CCN3S(C)(=O)=O` (centres unmarked) [Compound B107], the EC50 under setting [2] is not above 0.01 µM and the EC50 under setting [1] is less than 0.01 µM.
In the same order, the values of `CNC(=O)c1c(-c2ccc(F)cc2)oc2cc3c(cc12)C(O)C(C)(C)CCN3S(C)(=O)=O` (centres unmarked) [Compound B123] are 0.01 to 0.1 µM and 0.01 to 0.1 µM.
In the same order, the values of `CNC(=O)c1c(-c2ccc(F)cc2)oc2cc3c(cc12)C(C)N(C1CC1)CCN3S(C)(=O)=O` (centres unmarked) [Compound B124] are 0.01 to 0.1 µM and 0.01 to 0.1 µM.
With `CNC(=O)c1c(-c2ccc(F)cc2)nn2cc3c(cc12)CCCCCN3S(C)(=O)=O` [Compound B125], under setting [1], the EC50 lay in the range of 0.01 to 0.1 µM.
On the same count and under the same terms, as for `[2H]C([2H])([2H])NC(=O)c1c(-c2ccc(F)cc2)nn2cc3c(cc12)CCCCCN3S(C)(=O)=O` [Compound B126], the figure is 0.01 to 0.1 µM.
`CNC(=O)c1c(-c2ccc(F)cc2)oc2cc3c(cc12)C1CC1CCN3S(C)(=O)=O` (centres unmarked) [Compound B127]: the EC50 was not above 0.01 µM under setting [2] and less than 0.01 µM under setting [1].
In the same order, the values of `[2H]C([2H])([2H])NC(=O)c1c(-c2ccc(F)cc2)oc2cc3c(cc12)C1CC1CCN3S(C)(=O)=O` (centres unmarked) [Compound B128] are not above 0.01 µM and less than 0.01 µM.
On to `CS(=O)(=O)N1CCCCCc2cc3c(-c4ncc[nH]4)c(-c4ccc(F)cc4)nn3cc21` [Compound B129], for which the EC50 under setting [1] lay in the range of 0.01 to 0.1 µM.
Regarding `CS(=O)(=O)N1CCCCCc2cc3c(-c4ncc[nH]4)c(-c4ccc(F)cc4)oc3cc21` [Compound B130], the EC50 is not above 0.01 µM under setting [2] and less than 0.01 µM under setting [1].
For the compound `CNC(=O)c1c(-c2ccc(F)cc2)oc2cc3c(cc12)C(C)N(C(=O)c1ccc(F)cc1)CCN3S(C)(=O)=O` (centres unmarked) [Compound B134], the EC50 is, setting by setting: under setting [2], 0.01 to 0.1 µM; under setting [1], 0.01 to 0.1 µM.
Turning to `CNC(=O)c1c(-c2ccc(Oc3ccc(F)cc3)cc2)oc2cc3c(cc12)C=CCCN3S(C)(=O)=O` [Compound B135], the EC50 under setting [1] lay within 0.1 to 1 µM.
For `CNC(=O)c1c(-c2ccc(Oc3ccc(F)cc3)cc2)oc2cc3c(cc12)CCCCN3S(C)(=O)=O` [Compound B136], the EC50 runs as follows: under setting [2], 0.01 to 0.1 µM; under setting [1], 0.01 to 0.1 µM.
For the compound `CNC(=O)c1c(-c2ccc(F)cc2)oc2cc3c(cc12)C(C)n1nncc1CN3S(C)(=O)=O` (centres unmarked) [Compound B138], the EC50 reads like this: under setting [2], not above 0.01 µM; under setting [1], less than 0.01 µM.
Turning to `CNC(=O)c1c(-c2ccc(F)cc2)oc2cc3c(cc12)C(C)N(CC(F)F)CCN3S(C)(=O)=O` (centres unmarked) [Compound B139], the EC50 is, setting by setting: under setting [2], not above 0.01 µM; under setting [1], less than 0.01 µM.
The like results for `CNC(=O)c1c(-c2ccc(F)cc2)oc2cc3c(cc12)C(C)N(Cc1ccc(F)cc1)CCN3S(C)(=O)=O` (centres unmarked) [Compound B142] were, in that order, 0.01 to 0.1 µM and 0.01 to 0.1 µM.
Regarding `CCN1CCN(S(C)(=O)=O)c2cc3oc(-c4ccc(F)cc4)c(C(=O)NC)c3cc2C1C` (centres unmarked) [Compound B144], the EC50 by setting is: under setting [2], 0.01 to 0.1 µM; under setting [1], 0.01 to 0.1 µM.
Regarding `CNC(=O)c1c(-c2ccc(F)cc2)oc2cc3c(cc12)C(C)N(CCF)CCN3S(C)(=O)=O` (centres unmarked) [Compound B147], the EC50 reads like this: under setting [2], 0.01 to 0.1 µM; under setting [1], 0.01 to 0.1 µM.
Turning to `CNC(=O)c1c(-c2ccc(F)cc2)oc2cc3c(cc12)C(C(F)(F)F)OCCN3S(C)(=O)=O` (centres unmarked) [Compound B148], the EC50 is, setting by setting: under setting [2], not above 0.01 µM; under setting [1], less than 0.01 µM.
Take `CNC(=O)c1c(-c2ccc(F)cc2)oc2cc3c(cc12)C(C)N(CC(=O)O)CCN3S(C)(=O)=O` (centres unmarked) [Compound B149]: the EC50 under setting [1] is more than 1 µM.
In the case of `CNC(=O)c1c(-c2ccc(F)cc2)oc2cc3c(cc12)C(C)N(S(C)(=O)=O)CCN3S(C)(=O)=O` (centres unmarked) [Compound B157], the EC50 reads like this: under setting [2], 0.01 to 0.1 µM; under setting [1], 0.01 to 0.1 µM.
Regarding `CNC(=O)c1c(-c2ccc(Oc3ccc(F)cc3)cc2)oc2cc3c(cc12)C(C)n1nncc1CN3S(C)(=O)=O` (centres unmarked) [Compound B158], the EC50 under setting [2] was not above 0.01 µM and the EC50 under setting [1] was less than 0.01 µM.
The like results for `CNC(=O)c1c(-c2ccc(F)cc2)oc2cc3c(cc12)C(C)N([C@H](C)c1ccc(F)cc1)CCN3S(C)(=O)=O` (some centres unmarked) [Compound B159] were, in that order, 0.01 to 0.1 µM and 0.01 to 0.1 µM.
The like results for `[2H]C([2H])([2H])NC(=O)c1c(-c2ccc(Oc3ccc(F)cc3)cc2)oc2cc3c(cc12)C(C)N(C)CCN3S(C)(=O)=O` (centres unmarked) [Compound B160] were, in that order, 0.01 to 0.1 µM and 0.01 to 0.1 µM.
In the same order, the values of `CNC(=O)c1c(-c2ccc(F)cc2)oc2cc3c(cc12)C(C)N(c1ccc(F)cc1)CCN3S(C)(=O)=O` (centres unmarked) [Compound B165] are 0.01 to 0.1 µM and 0.01 to 0.1 µM.
With `CC1c2cc3c(-c4ncc[nH]4)c(-c4ccc(Oc5ccc(F)cc5)cc4)oc3cc2N(S(C)(=O)=O)CCN1C` (centres unmarked) [Compound B166], the EC50 was 0.01 to 0.1 µM under setting [2] and 0.01 to 0.1 µM under setting [1].
`CNC(=O)c1c(-c2ccc(Oc3ccc(F)cc3)cc2)oc2cc3c(cc12)C(C)OC(C)(C)CN3S(C)(=O)=O` (centres unmarked) [Compound B167]: the EC50 is 0.01 to 0.1 µM under setting [2] and 0.01 to 0.1 µM under setting [1].
For `CNC(=O)c1c(-c2ccc(Oc3ccc(F)cc3)cc2)oc2cc3c(cc12)C(C)OC(C)CN3S(C)(=O)=O` (centres unmarked) [Compound B168], the EC50 under setting [2] was not above 0.01 µM and the EC50 under setting [1] is less than 0.01 µM.
The like results for `CNC(=O)c1c(-c2ccc(F)cc2)oc2cc3c(cc12)C(C)N(C)C(=O)CN3S(C)(=O)=O` (centres unmarked) [Compound B172] were, in that order, 0.01 to 0.1 µM and 0.01 to 0.1 µM.
The like results for `CNC(=O)c1c(-c2ccc(F)cc2)oc2cc3c(cc12)C(C)NC(=O)CN3S(C)(=O)=O` (centres unmarked) [Compound B173] were, in that order, 0.01 to 0.1 µM and 0.01 to 0.1 µM.
Consider `CNC(=O)c1c(-c2ccc(Oc3ccc(F)cc3)cc2)oc2cc3c(cc12)C(C)N(C)C(=O)CN3S(C)(=O)=O` (centres unmarked) [Compound B174], for which the EC50 runs as follows: under setting [2], 0.01 to 0.1 µM; under setting [1], 0.01 to 0.1 µM.
As for `CNC(=O)c1c(-c2ccc(Oc3ccc(F)cc3)cc2)oc2cc3c(cc12)C(C)NC(=O)CN3S(C)(=O)=O` (centres unmarked) [Compound B175], the EC50 under setting [2] is 0.01 to 0.1 µM and the EC50 under setting [1] was 0.01 to 0.1 µM.
